For data set [1] the following is noted: person, 4 grams/day; cited from earlier work.
For data set [2] the following is noted: male, human, in vivo. The text has this: A construction worker* fell from a height of about 8 feet, severely breaking their right ankle and wrist. (*to promote privacy and simplify description of the invention, the patient and symptoms described here are a composite of data from typical patients). Orthopedic surgery repaired the injury, followed by prolonged and painful rehabilitation. A prescription for 60 Vicodin tablets (a composition comprising acetaminophen and hydrocodone) is given routinely during such post-surgical recovery periods. Typcially, the first day 4 to 8 vicodin tablets manage pain (often in combination with sedatives and the aftereffects of surgical anesthetics).
On the second day, at least 8 Vicodin® tablets are generally required to get the same analgesic effect (Vicodin is a well known trademark, which will also be referred to herein by “vicodin”). Subsequently, it is common that more than 10 vicodin tablets per day are taken, contrary to the doctor's instructions, yet less pain relief is noted with this higher dosage. At this rate, the patient must seek a refill in only a week; often doctors refilling such prescriptions give a stern advisory about taking too many pills and the dangers of Tylenol/acetaminophen. Subsequently, the patient sought prescriptions from other physicians and took 30 Vicodin tablets each day. […]

The conditions of data set [3]: rat, oral.
Description: The effect of prophylactic administration of n-acetylcysteine (NAC) on acetaminophen hepatotoxicity can be determined in the rat. In a double-blind placebo study, four groups of rats are given one of the following oral dosings: “NAC-free” (NF), low NAC (LN), medium NAC (MN), or high NAC(HN). Then rats in all groups are administered a toxic dose of acetaminophen (1 g/kg body weight) orally. After 24 hours, animal are euthanized and assessed for hepatotoxicity by the elevation of serum transaminases and by a necrotic score based on histological examination.
In the following protocol, all rats in the study are given the LD50 dose of acetaminophen (determined by the dosage of acetaminophen that causes 50% of the test subjects to expire after a predetermined period of time). […] The study is conducted in double-blind fashion; four groups of rats are given one of the following oral dosings: “NAC-free” (NF or placebo), low NAC (LN), medium NAC (MN), or high NAC(HN). Then rats in all groups are administered a LD50 dose of acetaminophen. All animals are euthanized 3 weeks later and hepatotoxicity assessed by the elevation of serum transaminases and by a necrotic score based on histological examination. Mortality in all groups will also be followed as the added criterion.
The conditions of data set [4]: Mucomyst monograph; cited from earlier work.
The conditions of data set [5]: rats, oral methionine 200 mg/kg/day for 14 days; cited from earlier work.

Where only a bound is given, the exact number is not on record here.

These results are taken from patent publication US20080139654A1, “ACETAMINOPHEN COMPOSITIONS HAVING MINIMIZED SIDE EFFECTS INCLUDING REDUCED HEPATOTOXICITY” (priority 2006, published 2008).

Regarding `CC(=O)Nc1ccc(O)cc1` [acetaminophen, N-acetyl-p-aminophenol], the “hepatotoxicity at recommended dose” value in data set [1] was “severe hepatotoxicity”. Further, the destruction of liver result in data set [2] is reported as “over 90%”. The “LD50 dose of acetaminophen” value in data set [3] is 0.5 g/kg of Body weight. Further, in data set [4], the “large overdose that saturates glucuronide and sulfate conjugation pathways, leading to hepatic cellular necrosis” value is ≥ 150 mg·kg.
For the compound `CSCC[C@H](N)C(=O)O` [methionine], in data set [5], the angiotoxic effects entry was “angiotoxic effects similar to atherosclerosis” and the “concentrations of homocysteine in serum” value is given as “increased”.
